{
  "source": "patent US20250082733A1",
  "about": "“m6A mRNA MODIFICATION IN CANCER TREATMENT” (CITY OF HOPE, priority 2017, published 2025)",
  "key": {"[1]": {"system": "ADAM19, EPHA3, and KLF4 expression in PBT003 cells", "assay": "RT-PCR of oncogene expression in GSCs", "format": "cell-based, human", "method": "RT-PCR: Total RNAs isolated using Trizol reagent (Ambion) were subjected to reverse transcription (RT) performed using the Tetro cDNA synthesis Kit (BioLINE). RT-PCR reactions were performed using SYBR Green Master Mix (Thermo Scientific) on the Step One Plus Real-Time PCR instrument (Applied Biosystems). The primers for RT-PCR include METLL3 (F 5′-TCAGCATCGGAACCAGCAAAG-3′ (SEQ ID NO: 8); R 5′-TCCTGACTGACCTTCTTGCTC-3′ (SEQ ID NO: 9)), METLL14 (F 5′-GTTGGAACATGGATAGCCGC-3′ (SEQ ID NO: 10); R 5′-CAATGCTGTCGGCACTTTCA-3′ (SEQ ID NO: 11)), CD44 (F 5′-TGAGCATCGGATTTGAGACC-3′ (SEQ ID NO: 12); R 5′-TGTCATACTGGGAGGTGTTGG-3′ (SEQ ID NO: 13)), ADAM19 (F 5′-CCTGGATGGACAAGAGGAAG-3′ (SEQ ID NO: 14); R 5′-CTCAGCTTTGAGTGGATGCT-3′ (SEQ ID NO: 15)), EPAH3 (F 5′-GGGCTGGATCTCTTATCCATC-3′ (SEQ ID NO: 16); R 5′-GGACCCAGTTTGTTCTCAGC-3′ (SEQ ID NO: 17)), KLF4 (F 5′-AAGAGTTCCCATCTCAAGGC-3′ (SEQ ID NO: 18); R 5′-CCGTGTGTTTACGGTAGTGC-3′ (SEQ ID NO: 19)), and ACTIN (F 5′-CCGCAAAGACCTGTACGCCAAC-3′ (SEQ ID NO: 20); R 5′-CCAGGGCAGTGATCTCCTTCTG-3′ (SEQ ID NO: 21)). ACTIN was included as the reference gene for normalization. The ΔΔCt method was used for quantification analysis."}, "mRNA m^6A level in GSCs": {"system": "mRNA m^6A level in GSCs", "assay": "m6A mRNA dot blot of GSCs treated with MA2", "format": "cell-based, human", "conditions": "50 μM MA2, 48 h, vs vehicle control", "method": "m^6A dot blot assay: GSCs were either maintained in sphere cultures or induced into differentiation for 1 week using 0.5% fetal bovine serum (Sigma) together with 1 μM all-trans retinoic acid (Sigma). Total RNAs were isolated from these GSCs using Trizol reagent (Ambion). GSCs were transduced with lentivirus expressing METTL3 or METTL14 shRNA or METTL3 cDNA. Seven days after transduction, total RNAs were extracted. mRNAs were prepared from total RNAs using Dynabeads® mRNA purification kit (Ambion, Catalog #61006). Indicated amount of mRNAs was used for dot blot analysis using an antibody specific for m^6A (1:1,000; Synaptic Systems; Catalog #202003). The intensity of dot blot signal was quantified by Image J.\n(§1) Treatment of GSCs with the FTO inhibitor MA2: GSCs were seeded at 5×10^4 cells per well in 48-well plates and cultured overnight. These cells were treated with MA2, a chemical inhibitor of FTO (Huang et al., 2015) at 20, 40, 60, 80 μM or vehicle control and cultured for 48 h. Cell number was counted using a hemocytometer. To determine the effect of MA2 on the level of m^6A RNA modification, GSCs were treated with 50 μM MA2 for 48 h. mRNAs were prepared and subjected to m^6A dot blot assay. To test the effect of MA2 in limiting dilution assay, GSCs were treated at 40 μM or vehicle control for two weeks."}, "PBT111": {"system": "PBT111", "assay": "Cell growth assay, MA2-treated GSCs (PBT111)", "format": "cell-based, human", "conditions": "48 h", "method": "as §1"}, "brain astrocytes": {"system": "brain astrocytes", "assay": "Cell growth assay, control cells (astrocytes)", "format": "cell-based"}, "PBT003 cells [2]": {"system": "PBT003 cells", "assay": "Cell growth assay, MA2-treated GSCs (PBT003)", "format": "cell-based, human", "conditions": "PBT003, 60 μM and 80 μM, 48 h", "method": "as §1"}, "PBT726": {"system": "PBT726", "assay": "Cell growth assay, MA2-treated GSCs (PBT726)", "format": "cell-based, human", "conditions": "48 h", "method": "as §1"}, "GSCs [3]": {"system": "GSCs", "assay": "Limiting dilution assay of GSCs treated with MA2", "format": "cell-based, human", "conditions": "40 μM, two weeks, vs control cells", "method": "Limiting dilution assay: GSCs were transduced with relevant shRNA or METTL3-expressing lentivirus. The transduced GSCs were seeded at 1, 5, 10, 20, 50 and 100 cells per well into 96-well plates. The number of neurospheres in each well was counted two weeks after seeding cells. Extreme limiting dilution analysis was performed using software available at http://bioinf.wehi.edu.au/software/elda.\nas §1"}, "FTO": {"target": "FTO (Homo sapiens, UniProt Q9C0B1)", "sequence (Q9C0B1 whole entry)": "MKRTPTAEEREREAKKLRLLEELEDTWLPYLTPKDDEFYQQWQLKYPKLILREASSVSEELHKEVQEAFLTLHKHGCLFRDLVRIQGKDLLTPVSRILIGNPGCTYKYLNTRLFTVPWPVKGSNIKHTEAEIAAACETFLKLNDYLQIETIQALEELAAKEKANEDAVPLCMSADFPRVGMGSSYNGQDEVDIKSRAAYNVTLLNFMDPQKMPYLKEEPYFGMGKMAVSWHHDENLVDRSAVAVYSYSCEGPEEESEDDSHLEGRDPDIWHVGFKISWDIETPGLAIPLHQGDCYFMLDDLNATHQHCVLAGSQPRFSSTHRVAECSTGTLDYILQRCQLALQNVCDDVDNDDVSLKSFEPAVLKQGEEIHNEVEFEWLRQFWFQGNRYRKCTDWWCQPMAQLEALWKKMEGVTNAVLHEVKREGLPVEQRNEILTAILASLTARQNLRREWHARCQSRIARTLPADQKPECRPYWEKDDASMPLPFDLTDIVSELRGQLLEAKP", "conditions": "Huang et al., 2015; cited from earlier work"}, "PBT707": {"system": "PBT707", "assay": "Cell growth assay, MA2-treated GSCs (PBT707)", "format": "cell-based, human", "conditions": "48 h", "method": "as §1"}, "HeLa cells": {"system": "HeLa cells", "assay": "Cell growth assay, control cells (HeLa)", "format": "cell-based"}, "[4]": {"system": "normal neural stem cells (NSC) line NSC006", "assay": "Cell growth assay, control cells (NSC006)", "format": "cell-based"}, "GSCs [5]": {"system": "GSCs", "assay": "Sphere formation assay of METTL3 or METTL14 KD GSCs with MA2", "format": "cell-based, human", "conditions": "together with MA2", "method": "Sphere formation assay: The sphere formation assay was performed as previously described (Cui et al., 2016). Briefly, three days after viral transduction, the transduced cells were seeded at 1 cell per well in 96-well plates (for those associated with the limiting dilution assay) or 100 cells per well in 48-well plates and cultured for 2 weeks. The sphere number was counted under microscope. The sphere formation rate was defined as the percentage of sphere-forming cells out of the number of starting cells."}, "PBT003 cells [6]": {"system": "PBT003 cells", "assay": "Intratumoral MA2 in PBT003-grafted NSG mice", "format": "in vivo", "conditions": "vs vehicle control", "method": "Introcranial delivery of the FTO inhibitor MA2: PBT003 cells (2×10^5) transduced with luciferase expressing lentivirus were intracranially transplanted into the frontal lobe of NSG mice at the same coordinates as described above. One week after transplantation, tumors were detected by bioluminescence imaging and mice were treated with MA2 (5 μl of 600 μM MA2 in 1% DMSO in PBS per mouse) or vehicle control by intratumoral injection once a week for four weeks. Tumor growth was monitored by bioluminescence imaging every week for six weeks. The bioluminescence intensity was quantified.\nTo test the effect of the FTO inhibitor on GSC-initiated tumorigenesis, PBT003-grafted mice were treated with the selective FTO inhibitor MA2 intratumorally once a week for four weeks (FIG. 11d). Tumor formation was monitored by bioluminescence xenogen imaging."}},
  "data": [
    {"smiles": "CCOC(=O)c1ccccc1Nc1c(Cl)ccc(C)c1Cl", "note": "[MA2, ethyl ester form of meclofenamic acid (MA)]", "values": [
      {"measurement": "expression of ADAM19, EPHA3, and KLF4", "setting": "[1]", "value": "decreased expression"},
      {"measurement": "mRNA m^6A level", "setting": "mRNA m^6A level in GSCs", "value": "substantial increase"},
      {"measurement": "cell growth", "setting": "PBT111; PBT111, 20 μM and 40 μM", "value": "inhibited the growth"},
      {"measurement": "cell growth", "setting": "PBT111; PBT111, 60 μM and 80 μM", "value": "substantial inhibitory effect"},
      {"measurement": "cell growth", "setting": "brain astrocytes; astrocytes, 80 μM", "value": "Mild effect"},
      {"measurement": "cell growth", "setting": "brain astrocytes; brain astrocytes, up to 60 μM", "value": "no substantial effect"},
      {"measurement": "cell growth", "setting": "PBT003 cells [2]", "value": "dramatic growth inhibitory effect"},
      {"measurement": "cell growth", "setting": "PBT726; PBT726, 40 μM", "value": "suppressed the growth"},
      {"measurement": "cell growth", "setting": "PBT726; PBT726, 60 μM and 80 μM", "value": "substantial inhibitory effect"},
      {"measurement": "self-renewal of GSCs (stem cell frequency)", "setting": "GSCs [3]", "value": "dramatically inhibited the self-renewal"},
      {"measurement": "FTO inhibition", "setting": "FTO", "value": "selective inhibitor of FTO"},
      {"measurement": "cell growth", "setting": "PBT707; PBT707, 40 μM", "value": "suppressed the growth"},
      {"measurement": "cell growth", "setting": "PBT707; PBT707, 60 μM and 80 μM", "value": "substantial inhibitory effect"},
      {"measurement": "cell growth", "setting": "HeLa cells; 80 μM", "value": "Mild effect"},
      {"measurement": "cell growth", "setting": "HeLa cells; up to 60 μM", "value": "no substantial effect"},
      {"measurement": "cell growth", "setting": "[4]; NSC006, up to 60 μM", "value": "no substantial effect"},
      {"measurement": "cell growth", "setting": "[4]; NSCs, 80 μM", "value": "Mild effect"},
      {"measurement": "sphere formation rate", "setting": "GSCs [5]", "value": "reversed the effect of elevated sphere formation rate"},
      {"measurement": "tumor luciferase activity", "setting": "PBT003 cells [6]; 4 or 5 weeks after compound treatment", "value": "significant decrease"},
      {"measurement": "tumor size by bioluminescence xenogen imaging", "setting": "PBT003 cells [6]; intratumoral, once a week for four weeks", "value": "much smaller tumors"},
      {"measurement": "survival", "setting": "PBT003 cells [6]; log-rank test", "value": "substantially prolonged survival"}
    ]}
  ]
}
